Columns and labels:
Type in all cases: functional, cell-based
MIA PaCa-2 [1] = test: Cytotoxicity against human MIA PaCa-2 cells assessed as inhibition of cell growth incubated for 3 days in glucose-containing medium by MTT assay; conditions: MIA PaCa-2, 72 h
BXPC-3 = test: Cytotoxicity against human BXPC-3 cells assessed as inhibition of cell growth incubated for 7 days in glucose-containing medium by MTT assay; conditions: BXPC-3, 168 h
MIA PaCa-2 [2] = test: Cytotoxicity against human MIA PaCa-2 cells assessed as inhibition of cell growth incubated for 7 days in glucose-containing medium by MTT assay; conditions: MIA PaCa-2, 168 h
MIA PaCa-2 [3] = test: Cytotoxicity against human MIA PaCa-2 cells assessed as inhibition of cell growth incubated for 3 days in galactose-containing medium by MTT assay; conditions: MIA PaCa-2, 72 h

Compound	IC50 (MIA PaCa-2 [1])	IC50 (BXPC-3)	IC50 (MIA PaCa-2 [2])	IC50 (MIA PaCa-2 [3])
CCOC(=O)[C@@H]1CCCN(S(=O)(=O)c2ccc(S(=O)(=O)N3CCCCC3)cc2)C1	1 µM	3.3 µM	2.9 µM	> 10 µM
CCOC(=O)C1CCCCN1S(=O)(=O)c1ccc(S(=O)(=O)N(CC)CC)cc1 (stereo not drawn)	> 3 µM	12.9 µM	24.6 µM	> 10 µM
CCOC(=O)[C@@H]1CCN(S(=O)(=O)c2ccc(S(=O)(=O)N(CC)CC)cc2)C1	1.5 µM	10 µM	8.6 µM	> 10 µM
CCN(CC)S(=O)(=O)c1ccc(S(=O)(=O)N2CCC[C@@H](C(=O)N[C@H]3CCN(C(=O)OC(C)(C)C)C3)C2)cc1	0.17 µM	0.3 µM	0.1 µM	> 10 µM
CC(C)c1noc(N2CCN(C(=O)[C@@H]3CCCN(S(=O)(=O)c4ccc(S(=O)(=O)NC5CC5)cc4)C3)CC2)n1	0.3 µM	6.7 µM	1 µM	> 10 µM
CCN(CC)S(=O)(=O)c1ccc(S(=O)(=O)N2CCC[C@@H](C(=O)NC3CN(C(=O)C4CC4)C3)C2)cc1	3.1 µM	18.5 µM	2.8 µM	> 10 µM
CCOC(=O)[C@@H]1CCCN(S(=O)(=O)c2ccc(S(=O)(=O)N(C)Cc3ccccc3)cc2)C1	–	> 30 µM	> 30 µM	–
CCNS(=O)(=O)c1ccc(S(=O)(=O)N2CCC[C@@H](C(=O)N3CCN(c4nc(C(C)C)no4)CC3)C2)cc1	0.2 µM	6.9 µM	3.3 µM	> 10 µM
CCN1CC(NC(=O)[C@@H]2CCCN(S(=O)(=O)c3ccc(S(=O)(=O)N(CC)CC)cc3)C2)C1	> 10 µM	> 30 µM	> 30 µM	> 10 µM
CCN(CC)S(=O)(=O)c1ccc(S(=O)(=O)N2CCC[C@@H](C(=O)N3CCN(C(=O)OC(C)(C)C)CC3)C2)cc1	0.01 µM	0.2 µM	0.07 µM	> 10 µM
CCOC(=O)[C@@H]1CCCN(S(=O)(=O)c2ccc(S(=O)(=O)N(CC)CC)nc2)C1	1.6 µM	8 µM	5.6 µM	> 10 µM
CCOC(=O)[C@@H]1CCCN(S(=O)(=O)c2ccc(S(=O)(=O)N(CC)CC)c(F)c2)C1	0.2 µM	1.6 µM	0.9 µM	> 10 µM
CCN(CC)S(=O)(=O)c1ccc(S(=O)(=O)N2CCC[C@@H](C(=O)N[C@@H]3CCN(C(=O)OC(C)(C)C)C3)C2)cc1	0.5 µM	0.4 µM	0.2 µM	> 10 µM
CCN(CC)S(=O)(=O)c1ccc(S(=O)(=O)N2CCC[C@@H](C(=O)N3CC4(CCN(C(=O)OC(C)(C)C)C4)C3)C2)cc1	1.3 µM	0.9 µM	0.19 µM	> 10 µM
CCOC(=O)[C@@H]1CCCN(S(=N)(=O)c2ccc(S(=O)(=O)N(CC)CC)cc2)C1 (stereo partly drawn)	4.7 µM	13.3 µM	12.1 µM	> 10 µM
CCOC(=O)[C@@H]1CCCN(S(=O)(=O)c2ccc(S(=O)(=O)N3CCNCC3)cc2)C1	–	> 30 µM	> 30 µM	–
CCOC(=O)[C@@H]1CCCN(S(=O)(=O)c2ccc(S(=O)(=O)N(CC)CC)cc2C)C1	1.2 µM	5.6 µM	5.1 µM	> 10 µM
CCN(CC)S(=O)(=O)c1ccc(S(=O)(=O)N2CCC[C@@H](c3cc(C)no3)C2)cc1	2.7 µM	7.7 µM	4.9 µM	> 10 µM
CCN(CC)S(=O)(=O)c1ccc(S(=O)(=O)N2CCC[C@@H](C(=O)N3CCN(c4nc(C(F)(F)F)no4)CC3)C2)cc1	0.06 µM	–	0.6 µM	> 10 µM
CCOC(=O)[C@@H]1C[C@@H](O)CN(S(=O)(=O)c2ccc(S(=O)(=O)N(CC)CC)cc2)C1 (relative stereo)	2.1 µM	10.8 µM	7.9 µM	> 10 µM
CCN(CC)S(=O)(=O)c1ccc(S(=O)(=O)N2CCC[C@@H](C(=O)NC3CC3)C2)cc1	1.1 µM	–	4.6 µM	> 10 µM
CC(C)c1noc(N2CCN(C(=O)[C@@H]3CCCN(S(=O)(=O)c4ccc(S(=O)(=O)NC(C)(C)C)cc4)C3)CC2)n1	0.1 µM	2.6 µM	0.3 µM	> 10 µM
CCOC(=O)[C@@H]1CCC[C@@H](S(=O)(=O)c2ccc(S(=O)(=O)N(CC)CC)cc2)C1 (relative stereo)	5 µM	18.5 µM	16.4 µM	> 10 µM
CCN(CC)S(=O)(=O)c1ccc(S(=O)(=O)N2CCC[C@@H](c3nc(C)no3)C2)cc1	0.7 µM	2.9 µM	4.1 µM	> 10 µM
CCN(CC)S(=O)(=O)c1ccc(S(=O)(=O)N2CCC[C@@H](C(=O)N(C)C(C)C)C2)cc1	1.4 µM	7.7 µM	6.2 µM	> 10 µM
CCOC(=O)[C@@H]1CCCN(S(=O)(=O)c2ccc(S(=O)(=O)N(CC)C(C)C)cc2)C1	1.2 µM	1.6 µM	1 µM	> 10 µM

Compound	IC50 (MIA PaCa-2 [1])	IC50 (BXPC-3)	IC50 (MIA PaCa-2 [2])	IC50 (MIA PaCa-2 [3])
CCOC(=O)[C@@H]1CCC[C@H](S(=O)(=O)c2ccc(S(=O)(=O)N(CC)CC)cc2)C1 (relative stereo)	> 10 µM	25.2 µM	21.5 µM	> 10 µM
CCOC(=O)C12CC(CN(S(=O)(=O)c3ccc(S(=O)(=O)N(CC)CC)cc3)C1)C2	0.4 µM	1.2 µM	1 µM	> 10 µM
CCOC(=O)[C@H]1CCN(S(=O)(=O)c2ccc(S(=O)(=O)N(CC)CC)cc2)C1	> 10 µM	29.3 µM	29.2 µM	> 10 µM
CCN(CC)S(=O)(=O)c1ccc(S(=O)(=O)N2CCC[C@@H](C(=O)NC3CN(S(C)(=O)=O)C3)C2)cc1	–	7.4 µM	2.5 µM	–
CCOC(=O)N1CCC[C@@H](S(=O)(=O)c2ccc(S(=O)(=O)N(CC)CC)cc2)C1	> 10 µM	> 30 µM	> 30 µM	> 10 µM
CCOC(=O)[C@@H]1CCCN(S(=O)(=O)c2ccc(C(=O)N(CC)CC)cc2)C1	0.1 µM	0.64 µM	0.8 µM	> 10 µM
CCOC(=O)[C@@H]1CCCN(S(=O)(=O)c2ccc(S(=O)(=O)N3CCOCC3)cc2)C1	4.1 µM	23.4 µM	23.5 µM	> 10 µM
CCN(CC)S(=O)(=O)c1ccc(S(=O)(=O)N2CCC[C@@H](C(=O)N3CCN(c4nnc(C(C)C)o4)CC3)C2)cc1	1 µM	–	1.8 µM	> 10 µM
CCOC(=O)[C@@H]1C[C@H](O)CN(S(=O)(=O)c2ccc(S(=O)(=O)N(CC)CC)cc2)C1 (relative stereo)	0.3 µM	3.3 µM	1.3 µM	> 10 µM
CCN(CC)S(=O)(=O)c1ccc(S(=O)(=O)N2CCC[C@@H](C(=O)N3CCN(c4nc(C)no4)CC3)C2)cc1	0.2 µM	–	0.25 µM	> 10 µM
CCN(CC)S(=O)(=O)c1ccc(S(=O)(=O)N2CCC[C@@H](C(=O)NC3CCN(C(=O)OC(C)(C)C)CC3)C2)cc1	–	0.3 µM	0.1 µM	–
CC(C)c1noc(N2CCN(C(=O)[C@@H]3CCCN(S(=O)(=O)c4ccc(S(=O)(=O)NC5CCC5)cc4)C3)CC2)n1	0.2 µM	3.3 µM	0.6 µM	> 10 µM
CCOC(=O)N1CCC[C@H](S(=O)(=O)c2ccc(S(=O)(=O)N(CC)CC)cc2)C1	> 10 µM	> 30 µM	> 30 µM	> 10 µM
CCOC(=O)[C@@H]1CCCN(S(=O)(=O)c2cccc(S(=O)(=O)N(CC)CC)c2)C1	> 10 µM	> 30 µM	> 30 µM	> 10 µM
CCOC(=O)[C@@H]1CCCN(S(=O)(=O)c2ccc(S(=N)(=O)N(CC)CC)cc2)C1 (stereo partly drawn)	0.9 µM	3.6 µM	2.6 µM	> 10 µM
CCOC(=O)C1CCN(S(=O)(=O)c2ccc(S(=O)(=O)N(CC)CC)cc2)CC1	–	23.1 µM	27.2 µM	–
CCCN(CCC)S(=O)(=O)c1ccc(S(=O)(=O)N2CCC[C@@H](C(=O)OCC)C2)cc1	0.6 µM	2.5 µM	2.3 µM	> 10 µM
CCN(CC)S(=O)(=O)c1ccc(S(=O)(=O)N2CCC[C@@H](C(=O)NC3CN(C(=O)OC(C)(C)C)C3)C2)cc1	0.1 µM	1.8 µM	0.2 µM	> 10 µM
CCN(CC)S(=O)(=O)c1ccc(S(=O)(=O)N2CCC[C@@H](C(=O)NC3CN(C(=O)NC(C)(C)C)C3)C2)cc1	1.4 µM	10.1 µM	3.4 µM	> 10 µM
CCOC(=O)[C@@H]1CCCN(S(=O)(=O)c2ccc(S(=O)(=O)N(C)C)cc2)C1	0.3 µM	1 µM	0.9 µM	> 10 µM
CCOC(=O)[C@@H]1CCCN(S(=O)(=O)c2ccc(S(=O)(=O)N(CC)CC)cn2)C1	0.3 µM	1.4 µM	1.3 µM	> 10 µM
CCOC(=O)C1CN(S(=O)(=O)c2ccc(S(=O)(=O)N(CC)CC)cc2)C1	0.8 µM	12.7 µM	13.9 µM	> 10 µM
CCN(CC)C(=O)[C@@H]1CCCN(S(=O)(=O)c2ccc(S(=O)(=O)N(CC)CC)cc2)C1	0.7 µM	10.5 µM	6.4 µM	> 10 µM
CCN(CC)S(=O)(=O)c1ccc(S(=O)(=O)N2CCC[C@@H](C(=O)N3CC4(CN(C(=O)OC(C)(C)C)C4)C3)C2)cc1	0.3 µM	1.1 µM	0.4 µM	> 10 µM
CCCN(CC)S(=O)(=O)c1ccc(S(=O)(=O)N2CCC[C@@H](C(=O)OCC)C2)cc1	–	0.3 µM	0.3 µM	–
